Key:
[1] = system: JEG-3 cells; assay: Effect of endocytosis inhibitors on liposome uptake; assay type: cell-based, human; settings: pre-treatment 30 min; chlorpromazine 50 μM, indomethacin 50 μM, colchicine 10 μM, quercetin 10 μM
Method: Endocytosis was studied by adding JEG-3 cells to 6 well-plates and pre-treating them for 30 min with inhibitors of various endocytic pathways including the clathrin-dependent endocytosis inhibitor chlorpromazine (50 μM), the caveolin-dependent endocytosis inhibitor indomethacin (50 μM), the micropinocytosis inhibitor colchicine (10 μM), and quercetin (10 μM) as tools for inhibiting caveolae- or clathrin-independent endocytosis. Then, the medium was removed, and the fresh medium containing Dox-labeled liposomes was added to the plate. The cells were incubated for another 4 h. Subsequent steps were the same as those in uptake assay.

[2] = system: JEG-3 cells; assay: Specific uptake of cytarabine into the cells (LC/MS); assay type: cell-based, human; settings: Cy 5 μM, after 30 min and 1 h; compared with Pricell-0051, MCF-7, HepG2 cells; P < 0.05
Method: JEG-3 cells, MCF-7 cells, or HepG2 cells were plated overnight in 6-well plates. Then, the adhered cells were treated with Cy (5 μM) for 30 min or 60 min. Then, cells were washed with PBS for moving the free drug in the medium. After that, the cells were lysed and treated with acetonitrile for precipitating protein. Finally, the content of Cy was detected by LC/MS (8050, SHIMADZU, Japan).

[3] = biological target: T1, ENT1 (Homo sapiens, UniProt Q99808); assay: Effect of ENT1 competitive inhibitors on MTX formulation cytotoxicity (MTT); settings: then 20 μg MTX-equivalent/mL for 48 h; for effect of pre-treatment on toxicity of Cy-Lipo@MTX to JEG-3 cells: inhibitor 0.2-5.0 μM for 2 h
T1 sequence (Q99808 1-456): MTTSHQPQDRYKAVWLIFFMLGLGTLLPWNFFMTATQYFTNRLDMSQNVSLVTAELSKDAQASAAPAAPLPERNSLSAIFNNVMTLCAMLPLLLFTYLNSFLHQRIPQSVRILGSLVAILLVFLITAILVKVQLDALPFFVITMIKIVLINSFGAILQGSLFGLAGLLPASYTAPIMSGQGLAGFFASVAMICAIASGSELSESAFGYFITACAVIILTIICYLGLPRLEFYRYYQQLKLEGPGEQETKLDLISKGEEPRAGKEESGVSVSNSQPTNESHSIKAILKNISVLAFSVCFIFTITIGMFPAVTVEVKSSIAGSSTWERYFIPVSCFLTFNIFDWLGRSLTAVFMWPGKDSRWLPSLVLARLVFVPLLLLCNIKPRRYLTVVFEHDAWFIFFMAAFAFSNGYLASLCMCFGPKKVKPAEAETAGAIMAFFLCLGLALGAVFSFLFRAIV
Method: To investigate the effect of ENT1 on MTX formulations induced cytotoxicity, 2′-deoxycytidine and gemcitabine, as competitive inhibitors of ENT1, were cultured with adherent JEG-3 cells for 2 h. Next, the medium was removed, and the fresh medium containing MTX formulations (20 μg MTX-equivalent/mL) was added to the plate. The cells were incubated for another 48 h. MTT reagent was added as previously described, and absorbance was assessed via microplate reader.

[4] = biological target: T1, ENT1; assay: Competitive inhibition of liposome uptake by ENT1 substrates; assay type: cell-based; set-up: endogenous in cells; host or cells: JEG-3 (human choriocarcinoma cells); settings: pre-treatment 2 h, 0.2-5.0 μM, then liposomes 4 h
Method: Briefly, different concentration (0.2–5.0 μM) of 2′-deoxycytidine or gemcitabine was cultured with the adherent JEG-3 cells for 2 h. Then, the medium was removed, and the fresh medium containing Dox-labeled liposomes was added to the plate. The cells were incubated for another 4 h. Subsequent steps were the same as those in uptake assay.

In the case of `COc1ccc2c(c1)c(CC(=O)O)c(C)n2C(=O)c1ccc(Cl)cc1` [indomethacin], the “effect of endocytosis inhibitor on uptake of Dox-labeled Cy-Lipo” value (from here on “effect of endocytosis inhibitor”) [1] is reported as “impacted the uptake of Dox-labeled Cy-Lipo to the greatest extent”.

For `COc1cc2c(c(OC)c1OC)-c1ccc(OC)c(=O)cc1[C@@H](NC(C)=O)CC2` [colchicine], the “effect of endocytosis inhibitor” value [1] was “reduced effect”.

In the case of `Nc1ccn([C@@H]2O[C@H](CO)[C@@H](O)[C@@H]2O)c(=O)n1` [Cy, cytosine β-d-arabinofuranoside], the “amount of Cy taken up by JEG-3 cells” value [2] is reported as “significantly higher than that taken up by Pricell-0051, MCF-7, and HepG2 cells”.

With `Cl.Nc1ccn([C@H]2C[C@H](O)[C@@H](CO)O2)c(=O)n1` [deoxycytidine, 2′-deoxycytidine hydrochloride] the “effect of pre-treatment on toxicity of Cy-Lipo@MTX to JEG-3 cells” value [3] was “significantly reduced the toxicity of Cy-Lipo@MTX to JEG-3 cells”, the “effect on uptake of Dox-labeled Cy-Lipo by JEG-3 cells” value [4] was “significantly reduce the uptake of Dox-labeled Cy-Lipo by JEG-3 cells in a concentration-dependent manner” and the “effect on uptake of Dox-labeled Lipo by JEG-3 cells” value [4] was “less of effect”.

In the case of `O=c1c(O)c(-c2ccc(O)c(O)c2)oc2cc(O)cc(O)c12` [Quercetin, quercetin], the “effect of endocytosis inhibitor” value [1] is reported as “a certain inhibitory effect”.

With `Nc1ccn([C@@H]2O[C@H](CO)[C@@H](O)C2(F)F)c(=O)n1` [gemcitabine] the “effect of pre-treatment on toxicity of Cy-Lipo@MTX to JEG-3 cells” value [3] was “significantly reduced the toxicity of Cy-Lipo@MTX to JEG-3 cells”, the “effect of pre-treatment on cytotoxicity of free MTX or Lipo@MTX in JEG-3 cells” value ([3]; inhibitor for 2 h) was “little effect” and the “effect on uptake of Dox-labeled Cy-Lipo by JEG-3 cells” value [4] was “significantly influenced the uptake of Dox-labeled Cy-Lipo at concentrations of 1.0 μM and 5.0 μM”.

In the case of `CN(C)CCCN1c2ccccc2Sc2ccc(Cl)cc21` [chlorpromazine], the “effect of endocytosis inhibitor” value [1] is reported as “next most substantial inhibition”.

— PMC8207694, “Nucleoside transporter-guided cytarabine-conjugated liposomes for intracellular methotrexate delivery and cooperative choriocarcinoma therapy” (Journal of Nanobiotechnology, 2021)
